# Test results: ChEMBL document CHEMBL4390670, “4-Aryl Pyrrolidines as a Novel Class of Orally Efficacious Antimalarial Agents. Part 1: Evaluation of 4-Aryl- N-benzylpyrrolidine-3-carboxamides” (J Med Chem, 2019)
# Columns and labels:
# [1] = Half life in mouse liver microsomes at 1 uM measured after 30 mins in presence of NADPH by LC-MS/MS analysis; format: ADME, Microsome; settings: microsomes, 0.5 h, 1 µM
# [2] = system: Plasmodium falciparum; test: Antimalarial activity against multidrug-resistant Plasmodium falciparum Dd2 measured after 72 hrs by SYBR Green 1 dye based fluorescence assay; format: functional, organism-based; settings: Dd2, 72 h
# [3] = Half life in mouse at 2 mg/kg, iv by LC-MS analysis; format: ADME, organism-based; settings: in vivo
# [4] = Apparent clearance in mouse at 2 mg/kg, iv by LC-MS analysis; format: ADME, organism-based; settings: in vivo, read-out: CL(app)
# [5] = Apparent volume of distribution in mouse at 2 mg/kg, iv by LC-MS analysis; format: ADME, organism-based; settings: in vivo, read-out: Vz
# [6] = system: Plasmodium chabaudi; test: Antimalarial activity against chloroquine-resistant Plasmodium chabaudi ASCQ infected in NIH mouse assessed as inhibition of parasitemia at 3 mg/kg, po administered once daily for 4 days starting from 4 hrs post-infection and measured on day 4 by Peter's 4 day test relative to control; format: functional
# [7] = system: Plasmodium chabaudi; test: Antimalarial activity against chloroquine-resistant Plasmodium chabaudi ASCQ infected in NIH mouse assessed as inhibition of parasitemia at 10 mg/kg, po administered once daily for 4 days starting from 4 hrs post-infection and measured on day 4 by Peter's 4 day test relative to control; format: functional
# [8] = system: Plasmodium chabaudi; test: Antimalarial activity against chloroquine-resistant Plasmodium chabaudi ASCQ infected in NIH mouse assessed as inhibition of parasitemia at 30 mg/kg, po administered once daily for 4 days starting from 4 hrs post-infection and measured on day 4 by Peter's 4 day test relative to control; format: functional
# [9] = system: Plasmodium chabaudi; test: Antimalarial activity against chloroquine-resistant Plasmodium chabaudi ASCQ infected in po dosed NIH mouse assessed as inhibition of parasitemia administered starting from 4 hrs post-infection by Peter's 4 day test; format: functional
# [10] = Time at which plasma concentration stays above in-vitro antimalarial IC50 for chloroquine-sensitive Plasmodium falciparum 3D7 in NIH mouse infected with chloroquine-resistant Plasmodium chabaudi ASCQ at 30 mg/kg/day, po; format: ADME, organism-based; settings: in vivo
# [11] = molecular target: Voltage-gated inwardly rectifying potassium channel KCNH2 (Homo sapiens, UniProt Q12809)
# Voltage-gated inwardly rectifying potassium channel KCNH2, sequence (Q12809 whole entry): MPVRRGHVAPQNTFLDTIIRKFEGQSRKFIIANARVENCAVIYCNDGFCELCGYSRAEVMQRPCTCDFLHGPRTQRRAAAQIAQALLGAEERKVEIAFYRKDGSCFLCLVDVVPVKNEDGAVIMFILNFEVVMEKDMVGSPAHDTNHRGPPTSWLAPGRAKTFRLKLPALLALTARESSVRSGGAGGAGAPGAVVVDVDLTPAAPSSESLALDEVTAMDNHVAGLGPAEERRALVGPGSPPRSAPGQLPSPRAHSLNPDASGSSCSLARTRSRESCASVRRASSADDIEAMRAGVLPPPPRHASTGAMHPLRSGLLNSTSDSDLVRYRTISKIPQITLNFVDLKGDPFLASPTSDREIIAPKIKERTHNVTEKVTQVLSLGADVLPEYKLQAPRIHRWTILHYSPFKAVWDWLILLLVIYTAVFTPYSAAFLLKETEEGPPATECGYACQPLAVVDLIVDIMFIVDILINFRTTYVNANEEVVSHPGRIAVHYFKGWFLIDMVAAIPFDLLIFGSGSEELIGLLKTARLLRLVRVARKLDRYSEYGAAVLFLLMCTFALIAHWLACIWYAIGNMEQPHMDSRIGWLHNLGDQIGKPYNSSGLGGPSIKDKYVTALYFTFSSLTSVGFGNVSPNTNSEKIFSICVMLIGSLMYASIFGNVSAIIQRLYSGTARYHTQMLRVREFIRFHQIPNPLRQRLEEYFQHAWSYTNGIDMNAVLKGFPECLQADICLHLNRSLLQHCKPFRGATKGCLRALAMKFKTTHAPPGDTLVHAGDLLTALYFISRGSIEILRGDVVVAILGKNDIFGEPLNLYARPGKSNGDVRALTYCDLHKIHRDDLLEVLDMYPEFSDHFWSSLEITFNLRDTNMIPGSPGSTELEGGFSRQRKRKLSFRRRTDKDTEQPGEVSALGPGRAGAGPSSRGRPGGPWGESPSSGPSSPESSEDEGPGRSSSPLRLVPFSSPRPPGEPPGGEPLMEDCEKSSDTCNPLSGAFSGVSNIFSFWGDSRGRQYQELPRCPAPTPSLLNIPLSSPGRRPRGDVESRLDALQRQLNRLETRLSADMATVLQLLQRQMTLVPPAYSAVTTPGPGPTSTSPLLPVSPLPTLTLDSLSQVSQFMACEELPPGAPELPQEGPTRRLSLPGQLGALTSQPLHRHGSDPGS
# Description: Inhibition of Tracer Red binding to human ERG expressed in membranes by fluorescence polarization assay
# [12] = system: Plasmodium falciparum; test: microbe, parasite or virus in culture; settings: 3D7, 72 h
# Description: Antimalarial activity against chloroquine-sensitive Plasmodium falciparum 3D7 measured after 72 hrs by SYBR Green 1 dye based fluorescence assay
# [13] = Oral bioavailability in mouse at 5 mg/kg by LC-MS analysis; settings: in vivo
compound,measurement,setting,value
C[C@H](NC(=O)[C@H]1CNC[C@@H]1c1ccc(C(F)(F)F)cc1)c1ccc(N(C)C)cc1,t1/2,[1],0.633 h
same,IC50,[2],21 nM
same,half-life,[3],4.4 h
same,clearance,[4],3.3 mL/min/kg
same,Vd,[5],1.3 L/kg
same,inhibition in vivo at 3 mg/kg,[6],22.4%
same,inhibition in vivo at 10 mg/kg,[7],75.2%
same,inhibition in vivo at 30 mg/kg,[8],98.7%
same,ED90,[9],20 mg/kg/day
same,ED99,[9],30 mg/kg/day
same,Time,[10],24 h
same,IC50,[11],32000 nM
same,IC50,[12],46 to 51 nM
same,bioavailability,[13],32%
